# Laboratory results as given in a melting point compilation (Tetko et al.; mined from patent text by program, amines drawn as free bases though some values may be those of a salt).
row,Compound,melting point [°C]
1,Cc1ccc(Cl)c(Nc2ccccc2C(=O)NN)c1Cl,158 to 160
2,CC1(C)C(N)CN1c1nc2c(cc1F)c(=O)c(C(=O)O)cn2C1CC1 (stereo not drawn),190 to 195
3,O=C1Nc2ccc(Cl)cc2C(OCc2ccccn2)(C(F)(F)F)CN1C1CC1 (stereo not drawn),170 to 172
4,C#CCn1c(C)c(C(=O)OCC)sc1=O,65
5,COc1cc2c(Nc3ccc(Sc4nccn4C)c(Cl)c3)c(C#N)cnc2cc1/C=C/CCCN1CCN(C)CC1,215 to 221
6,OCC12CO[C@@H](c3ccc(F)cc3)N1[C@H](c1ccc(F)cc1)OC2,115
7,CCOC(=O)Cc1ccc(C(=O)CN2CCN(c3ccncc3)CC2)cc1,122 to 124
8,O=CNc1nc(SCc2ccccc2)nn1-c1ccccc1,94
9,COC(=O)CC(=O)/C=C/c1c(-c2ccc(F)cc2)n(C(C)C)c(=O)c2ccccc12,123 to 125
10,CCOC(=O)C1=C(C)NC(C)=C(C(=O)OCC)C1c1ccccc1/C=C(\CC)C(=O)OCC,92 to 94
11,COc1c(C(C)(C)C)cc(P(c2cc(C(C)(C)C)c(OC)c(C(C)(C)C)c2)c2ccccc2Br)cc1C(C)(C)C,142 to 143
12,Cc1c(C(=O)N[C@H](C)[C@](O)(Cn2cncn2)c2ccc(F)cc2F)cnn1-c1c(Cl)cccc1Cl,226 to 227
13,CCCCCCCCc1nc2c(N)nc3ccccc3c2n1CCOCC#Cc1ccccc1,138 to 139
14,Cn1c(SC(Cl)=C(Cl)C#N)nnc1C(F)(F)F,90 to 94
15,CCC(C)c1ccc2c(c1)C(=O)N(c1ccc3c(ccn3C)c1)C2 (stereo not drawn),146 to 147
16,CC(C)(Cc1ccc(OC(F)(F)F)cc1)C(=O)C(C)(C)n1cncn1,100
17,CCC(C(=O)OC)c1cccc(C(=O)c2cc3cc(C(=O)OC)sc3s2)c1 (stereo not drawn),143
18,C=CCn1c2c(c3cc(OCc4ccc5ccccc5n4)ccc31)CCCC2CC(=O)O (stereo not drawn),150
19,CCCn1c(=O)c2nc(C(=O)O)cn2c2ccccc21,232 to 234
20,Nc1ccc(CS(=O)(=O)CCO)cc1CS(=O)(=O)CCO,183 to 185
21,O=C(O)CN(CC(=O)O)C(=O)OCC1c2ccccc2-c2ccccc21,213 to 216
22,CCOC(=O)c1c(Cl)nc(-c2ccccc2)c([N+](=O)[O-])c1C(=O)OCC,65 to 66
23,O/N=C(\CCN1CCN(c2ccccn2)CC1)c1ccc(Cl)cc1,188 to 190
24,CCCNC(=O)n1c(=O)cc2n1C(c1cccc([N+](=O)[O-])c1)C(C(=O)OC(C)C)=C(C)N2 (stereo not drawn),160 to 163
25,COC(=O)[C@H](Cc1cc(Cl)c(OCc2cccc3nc(-c4ccccc4)oc23)c(Cl)c1)NC(=O)C(F)(F)F,168 to 170

row,Compound,melting point [°C]
1,Cc1cc(CC(=O)O)c(CC(C)N)cc1C (stereo not drawn),222 to 223
2,Cc1cc(Br)cc(C(=O)O)c1N,245
3,C=C(C)COc1ccc2c(=O)c(C)c(-c3ccccc3)oc2c1C(=O)C=Cc1ccccc1,145 to 147
4,O=C(NCCN1CCOCC1)c1ccc(-c2ccc3nnn(Cc4ccc5ncccc5c4)c3n2)cc1,146 to 149
5,CCCCC1=NC(=NOC(=O)NC)SC1(C)C,128 to 130
6,O=c1ccc2cc(OC3O[C@H](CO)[C@@H](O)[C@H](O)[C@H]3O)c(OCc3ccccc3)cc2o1 (stereo partly drawn),184 to 186
7,CCN1CS(=C2SC(=S)N(Cc3ccccc3)C2=O)c2ccccc21 (stereo not drawn),209 to 211
8,CCCc1cc(C=CC(=O)c2ccc(O)cc2)c(OC)cc1O,126 to 128
9,COc1cc(OC)nc(NC(=O)NS(=O)(=O)c2ccccc2-c2cnoc2)n1,175 to 178
10,CCSc1nc(-c2ccc(O)cc2)cn1C,210
11,COc1ccc(-c2cc3ccccc3[nH]2)cc1NCc1ccc([N+](=O)[O-])c(O)c1,134 to 135
12,CCON=C(CC)C1=C(OC(=O)c2ccccc2)CC(c2c(OC)cc(OC)cc2OC)CC1=O (stereo not drawn),139
13,CC(CC(=O)NO)c1cccc(Nc2ccccc2-c2n[nH]c(=S)o2)c1Cl (stereo not drawn),205 to 207
14,Nc1nc(NC(CO)CO)c2ncn(C3C=CC(CO)C3)c2n1 (stereo not drawn),160 to 162
15,Cn1c(C(F)(F)F)cc(=O)n(-c2cc(OCC3CO3)c(Cl)cc2F)c1=O (stereo not drawn),93 to 96
16,CCC1(Br)Cc2c(Cl)ccc(OCC(=O)O)c2C1=O (stereo not drawn),136 to 146
17,O=C1NCCNN1c1cc(Cl)c(Sc2ccc(Cl)cc2)c(Cl)c1,242 to 243
18,CCOC(=O)[C@@H](O)[C@@H]1OC(=O)c2c(OC)cc(OC)cc21,154 to 156
19,Oc1ccc(Cn2cc[nH]c2=S)cc1F,161 to 165
20,Cc1ccc2oc(=O)c(C(=O)O)c(-c3ccccc3)c2c1,129 to 131
21,COc1ccc(OC(c2ccc(OC)cc2)C(Cl)(Cl)Cl)cc1 (stereo not drawn),90
22,CN(C)C(=O)N1CC(Sc2ccc(Cl)cc2)C1,96 to 97
23,[N-]=[N+]=NCC1Cc2c[nH]c3cccc(c23)C(=O)N1 (stereo not drawn),152 to 153
24,COc1cc(OC)c(-c2nc3cccnc3[nH]2)cc1C=CC(=O)c1ccc(S(N)(=O)=O)cc1,> 260
25,COC(=O)C(C#N)=CC=Cc1cc([N+](=O)[O-])ccc1Cl,193 to 194

row,Compound,melting point [°C]
1,C[C@H](CO)Nc1nc(SCc2cccc(F)c2F)nc2[nH]c(=O)c(NCc3ccccc3)nc12,80 to 100
2,COc1ccccc1NS(=O)(=O)c1ccc([N+](=O)[O-])cc1,96 to 98
3,CCc1ccc2c(c1)C=Cc1cc(C)ccc1C2c1cn(-c2ccnc(N(C)CC(=O)Nc3nc(CC(=O)O)cs3)n2)c(=O)[nH]c1=O (stereo not drawn),188
4,Cc1nc(NC(=O)c2cnn3c(C(F)F)cc(-c4ccc(C(F)(F)F)cc4)nc23)sc1S(=O)(=O)NC(CO)CO,217
5,N#Cc1cnn(Cc2ccccc2)c1,61 to 63
6,CCC1Cc2cc(N)ccc2C1=O (stereo not drawn),106 to 108
7,CC(C)CCOc1ccc(-c2c(Cl)c(CN3C(=O)CCC3=O)nc3sc4c(c23)CCNC4)cc1,226 to 227
8,Cc1cc(OC(F)F)nc(NC(=O)NS(=O)(=O)c2cccnc2Cl)n1,161 to 162
9,COC(C)Cn1c(C)nc2c(N)nc3ccccc3c21 (stereo not drawn),196 to 197
10,N#Cc1c(Nc2cccnc2)nn(Cc2ccccc2)c1N,191 to 192
11,CCCCCCCCCCCCCCCCCC(=O)Nc1cccc(N(CC(=O)O)CC(=O)O)c1,135 to 140
12,Cn1nc(-c2cc(S(=O)(=O)Cl)c(Cl)cc2F)c(Cl)c1C(F)(F)F,116 to 117
13,Brc1cnc(SCc2ccccc2)nc1SCc1ccccc1,66 to 67
14,CCOC(=O)c1cc(NC(C)=O)ccc1O,135 to 136
15,COC(=O)C1CCC2C3CCC4CC(O)C(O)CC4(C)C3C(NCCC(C)C)CC12C (stereo not drawn),159 to 161
16,Cc1c(SCCCCS)ccnc1CO,58 to 63
17,CCOC(=O)CCc1cccc2c1NC(=O)CC2,102 to 103
18,COC(=O)CCCCCCNC(=O)C(CO)NS(=O)(=O)c1ccc(Cl)cc1 (racemic),78 to 81
19,Cc1cccc2c1N(CC(=O)N1CC3CCC(CC3)C1)C(=O)C(NC(=O)Nc1cccc(Cl)c1)N=C2c1ccccc1F (stereo not drawn),> 250
20,N#CC(CBr)c1ccccc1 (stereo not drawn),63
21,CCCC1(CCC)c2ccccc2-c2cc3c(cc21)OCN3c1c(O)ccc2oc3ccccc3c12,304 to 305
22,Cc1cc(C(=O)Nc2c(NC(=O)CCl)ccc3c2C(=O)c2ccccc2C3=O)c(C)o1,207 to 208
23,CC(=O)C(C(C)=O)C(C(C)=O)C(C)=O,193 to 194
24,COc1cccc(-c2cncc(OC3SCC(OC(C)=O)C(OC(C)=O)C3OC(C)=O)c2)c1 (stereo not drawn),112 to 115
25,C[Si](C)(C)c1ccc2cc3c(cc2c1)C(=O)c1ccccc1C3=O,168 to 170

row,Compound,melting point [°C]
1,COc1ccc(N2N=C3c4ccccc4SCCC3CC2=O)cc1 (stereo not drawn),143 to 145
2,OCC1CCCN1c1cc(N2CCOCC2)nc(-n2c(C(F)F)nc3c(O)cccc32)n1 (stereo not drawn),195 to 198
3,CCc1cccc(CC)c1NCc1n[nH]c(=S)n1C,117 to 121
4,O=C(O)CCc1cc(OCCCc2cn(-c3ccc(C(F)(F)F)cn3)nc2-c2ccccc2)nn1-c1ccccc1,175 to 176
5,COC(=O)C(C)(C)c1ccc(C(=O)CCCCl)cc1,175 to 181
6,CC(C)(C)OC(=O)N1CCC2(CC1)CC(c1ccc(CNS(C)(=O)=O)c(F)c1)=NO2,178 to 182
7,Nc1nc(NC2CC2c2ccccc2)c2ncn(C3C=CC(CO)C3)c2n1 (stereo not drawn),188 to 190
8,CC1C(=O)CN[C@H]2c3ccc(Cl)cc3CC[C@H]12 (stereo partly drawn),71.5 to 73
9,CCOC(=O)Cc1ccc(-c2ccc(-c3ccccc3)cc2)o1,77 to 78
10,CC(C)(C)c1ccc(CCOc2ccnc3c(F)cccc23)cc1,81 to 82
11,O=C(O)COc1ccc(SCc2cc(-c3ccc(C(F)(F)F)cc3)on2)c2c1CCCO2,112 to 113
12,O=C(O)C1c2ccccc2N=C(N2CCCCC2)N1c1ccccc1 (stereo not drawn),238
13,CN1CCC(=C2c3ccccc3C=Cc3ccc(C(=O)O)cc32)CC1,300 to 305
14,CCC(C)(C)c1csc(C(C#N)=C(O)c2c(F)cccc2F)n1,195 to 196
15,COC(=O)Cc1nc(-c2ccc(C)cc2)oc1C,59 to 60
16,CC(C)C(C)(C#N)N1C(=O)c2cccc(Cl)c2C1=O (stereo not drawn),71 to 72
17,O=C1Oc2ccccc2CN1C1CCN(Cc2ccccc2)CC1,106 to 107
18,O=S(=O)(Nc1ncnc(OCCO)c1-c1cccc(Cl)c1)c1ccc(Cl)cc1,178 to 180
19,CCCOc1ccccc1-c1nc(NCCCO)cc(=O)[nH]1,148
20,CCCc1nc2c(N)nc3cc(Oc4ccccc4[N+](=O)[O-])ccc3c2n1CC(C)C,207 to 208
21,Cc1ccc2cccc(OCc3c(Cl)ccc(S(=O)(=O)N4CCCC4C(=O)NCCCN)c3Cl)c2n1 (stereo not drawn),130 to 132
22,CC(=O)CCCSc1cc(C(C)(C)C)c(O)c(C(C)(C)C)c1,65 to 67
23,CCOC(=O)c1c(-c2ccc(Cl)cc2)[nH]c(C(F)(F)F)c1C(F)(F)F,138 to 140
